# Measurements from patent US20220128542A1, “TREATMENT EFFICIENCY EVALUATION” (TX MEDIC AB, priority 2019, published 2022).
# Marks after values point to notes of the source that are not given here.
# System: brain of rats subjected to severe traumatic brain injury (sTBI)
# Test: HPLC of purine-pyrimidine metabolites (energy state, oxidative/nitrosative stress) in brain after sTBI (Example 1)
# Assay type: in vivo, rat
# Description: They were divided into three groups:
# 1) n=6 animals subjected to sTBI, with drug administration after 30 minutes and sacrifice at 2 days post-TBI (Acute phase 1)
# 2) n=6 animals subjected to sTBI, with drug administration after 30 minutes and sacrifice at 7 days post-TBI (Acute phase 2).
# 3) n=6 animals subjected to sTBI, with drug administration after 3 days and sacrifice at 7 days post-TBI (Chronic phase).
# The drug treatment was a subcutaneous injection of 0.5 ml of LMW-DS (15 mg/kg) and administered according to the aforementioned schematic protocol.
# After the wet weight (w.w.) determination, tissue preparation was affected as previously disclosed (Tavazzi et al., Neurosurgery. 2005; 56: 582-589; Vagnozzi et al., Neurosurgery. 2007; 61: 379-388; Tavazzi et al., Neurosurgery. 2007; 61: 390-395; Amorini et al., J Cell Mol Med. 2017; 21: 530-542.). Briefly, whole brain homogenization was performed with 7 ml of ice-cold, nitrogen-saturated, precipitating solution composed by CH3CN+10 mM KH2PO4, pH 7.40, (3:1; v:v), and using an Ultra-Turrax set at 24,000 rpm/min (Janke & Kunkel, Staufen, Germany). After centrifugation at 20,690×g, for 10 min at 4° C., the clear supernatants were saved, pellets were supplemented with 3 ml of the precipitating solution and homogenized again as described above. A second centrifugation was performed (20,690×g, for 10 min at 4° C.), pellets were saved, supernatants combined with those previously obtained, extracted by vigorous agitation with a double volume of HPLC-grade CHCl3 and centrifuged as above. The upper aqueous phases containing water-soluble low-molecular weight compounds were collected, subjected to chloroform washings for two more times (this procedure allowed the removal of all the organic solvent and of any lipid soluble compound from the buffered tissue extracts), adjusted in volumes with 10 mM KH2PO4, pH 7.40, to have ultimately aqueous 10% tissue homogenates and saved at −80° C. until assayed.
# Aliquots of each deproteinized tissue samples were filtered through a 0.45 μm HV Millipore filter and loaded (200 μl) onto a Hypersil C-18, 250×4.6 mm, 5 μm particle size column, provided with its own guard column (Thermo Fisher Scientific, Rodano, Milan, Italy) and connected to an HPLC apparatus consisting of a Surveyor System (Thermo Fisher Scientific, Rodano, Milan, Italy) with a highly sensitive diode array detector (equipped with a 5 cm light path flow cell) and set up between 200 and 300 nm wavelength. Data acquisition and analysis were performed by a PC using the ChromQuest® software package provided by the HPLC manufacturer.
# Metabolites belonging to the purine-pyrimidine profiles (listed below) and related to tissue energy state, mitochondrial function and relative to oxidative-nitrosative stresses were separated, in a single chromatographic run, according to slight modifications of existing ion-pairing HPLC methods (Lazzarino et al., Anal Biochem. 2003; 322: 51-59; Tavazzi et al., Clin Biochem. 2005; 38: 997-1008). Assignment and calculation of the compounds of interest in chromatographic runs of tissue extracts were carried out at the proper wavelengths (206, 234 and 260 nm) by comparing retention times, absorption spectra and areas of peaks with those of peaks of chromatographic runs of freshly-prepared ultra-pure standard mixtures with known concentrations. […]
# [1] = Acute phase 1: 15 mg/kg s.c. 30 min post-sTBI, sacrifice day 2
# [2] = Acute phase 2: 15 mg/kg s.c. 30 min post-sTBI, sacrifice day 7
substance,measurement,setting,value
sodium salt of dextran sulfate [LMW-DS],MDA levels,15 mg/kg s.c. after sTBI,significant reduction
same,ascorbic acid and GSH levels,15 mg/kg s.c. after sTBI,significant improvement
same,levels of NAA and its substrates,15 mg/kg s.c. after sTBI,significant improvements
same,nitrate concentrations,"15 mg/kg s.c., acute and chronic phases of sTBI",significantly decreased
same,ADO brain concentration,[1],71.67 ± 15.87 nmol/g (w.w.)
same,ADP brain concentration,[1],279.34 ± 29.59^b nmol/g (w.w.)
same,ADP-ribose brain concentration,[1],137.87 ± 43.18^a nmol/g (w.w.)
same,AMP brain concentration,[1],"53.61 ± 17.91^a, c, j nmol/g (w.w.)"
same,ATP brain concentration,[1],"1464.25 ± 99.09^a, h nmol/g (w.w.)"
same,CDP brain concentration,[1],"25.53 ± 6.83^a, c nmol/g (w.w.)"
same,CDP choline brain concentration,[1],"10.93 ± 3.22^b, h nmol/g (w.w.)"
same,CTP brain concentration,[1],"18.98 ± 6.58^a, g nmol/g (w.w.)"
same,CoA-SH brain concentration,[1],"21.61 ± 3.42^a, h nmol/g (w.w.)"
same,GDP brain concentration,[1],158.72 ± 24.57^a nmol/g (w.w.)
same,GDP glucose brain concentration,[1],38.71 ± 6.86 nmol/g (w.w.)
same,GMP brain concentration,[1],"177.00 ± 32.39^a, g nmol/g (w.w.)"
same,GSH brain concentration,[1],"2649.50 ± 397.31^a, d nmol/g (w.w.)"
same,GSSG brain concentration,[1],185.21 ± 48.10 nmol/g (w.w.)
same,GTP brain concentration,[1],"255.29 ± 45.21^a, g nmol/g (w.w.)"
same,IMP brain concentration,[1],"67.71 ± 10.63^g, i nmol/g (w.w.)"
same,MDA brain concentration,[1],"12.47 ± 2.09^a, c, g nmol/g (w.w.)"
same,NAA brain concentration,[1],6147.91 ± 989.12^a nmol/g (w.w.)
same,NADH brain concentration,[1],"15.49 ± 2.05^c, j nmol/g (w.w.)"
same,NADPH brain concentration,[1],6.22 ± 1.73 nmol/g (w.w.)
same,NADP^+ brain concentration,[1],17.95 ± 3.28^a nmol/g (w.w.)
same,NAD^+ brain concentration,[1],"404.63 ± 51.10^a, c, i nmol/g (w.w.)"
same,NO2 brain concentration,[1],216.03 ± 41.74^a nmol/g (w.w.)
same,NO3 brain concentration,[1],210.64 ± 91.95^d nmol/g (w.w.)
same,UDP brain concentration,[1],"61.83 ± 10.23^a, g nmol/g (w.w.)"
same,UDP-Gal brain concentration,[1],119.45 ± 12.50 nmol/g (w.w.)
same,UDP-GalNac brain concentration,[1],19.17 ± 4.01^a nmol/g (w.w.)
same,UDP-Glc brain concentration,[1],32.14 ± 4.59^g nmol/g (w.w.)
same,UDP-GlcNac brain concentration,[1],"95.85 ± 19.73^h, i nmol/g (w.w.)"
same,UMP brain concentration,[1],107.80 ± 21.62 nmol/g (w.w.)
same,UTP brain concentration,[1],123.46 ± 15.42^d nmol/g (w.w.)
same,acetyl-CoA brain concentration,[1],"21.56 ± 6.22^a, g, i nmol/g (w.w.)"
same,adenine brain concentration,[1],"44.82 ± 6.31^a, d, g nmol/g (w.w.)"
same,ascorbic acid brain concentration,[1],"3733.10 ± 277.88^a, d nmol/g (w.w.)"
same,creatinine brain concentration,[1],"24.55 ± 3.20^b, g, i nmol/g (w.w.)"
same,cytidine brain concentration,[1],15.40 ± 3.04 nmol/g (w.w.)
same,cytosine brain concentration,[1],"17.69 ± 2.50^b, d nmol/g (w.w.)"
same,guanine brain concentration,[1],4.80 ± 1.24^b nmol/g (w.w.)
same,guanosine brain concentration,[1],20.71 ± 5.66 nmol/g (w.w.)
same,hypoxanthine brain concentration,[1],14.47 ± 2.87^a nmol/g (w.w.)
same,inosine brain concentration,[1],92.55 ± 31.20^c nmol/g (w.w.)
same,malonyl-CoA brain concentration,[1],12.33 ± 1.82^b nmol/g (w.w.)
same,orotic acid brain concentration,[1],"8.80 ± 2.45^b, h, j nmol/g (w.w.)"
same,thymidine brain concentration,[1],0.69 ± 0.11 nmol/g (w.w.)
same,uracil brain concentration,[1],14.56 ± 5.44 nmol/g (w.w.)
same,uric acid brain concentration,[1],"23.62 ± 3.77^a, d, h nmol/g (w.w.)"
same,uridine brain concentration,[1],"76.35 ± 12.85^a, c nmol/g (w.w.)"
same,xanthine brain concentration,[1],9.46 ± 2.34^d nmol/g (w.w.)
same,β-pseudouridine brain concentration,[1],"6.65 ± 1.309^g, i nmol/g (w.w.)"
same,ADO brain concentration,[2],82.11 ± 16.51^a nmol/g (w.w.)
same,ADP brain concentration,[2],"264.07 ± 28.29^b, e, j nmol/g (w.w.)"
same,ADP-ribose brain concentration,[2],"141.96 ± 23.56^a, e, j nmol/g (w.w.)"
same,AMP brain concentration,[2],"57.70 ± 23.01^a, e, j nmol/g (w.w.)"
same,ATP brain concentration,[2],"1632.23 ± 90.07^a, e, j nmol/g (w.w.)"
same,CDP brain concentration,[2],24.29 ± 6.76^a nmol/g (w.w.)
same,CDP choline brain concentration,[2],6.91 ± 1.86 nmol/g (w.w.)
same,CMP brain concentration,[2],"15.68 ± 2.12^f, j nmol/g (w.w.)"
same,CTP brain concentration,[2],"32.63 ± 3.99^e, i nmol/g (w.w.)"
same,CoA-SH brain concentration,[2],30.57 ± 6.02^f nmol/g (w.w.)
same,GDP brain concentration,[2],"126.70 ± 31.35^a, j nmol/g (w.w.)"
same,GDP glucose brain concentration,[2],49.25 ± 10.33^a nmol/g (w.w.)
same,GMP brain concentration,[2],"91.47 ± 12.35^e, i nmol/g (w.w.)"
same,GSH brain concentration,[2],"2821.50 ± 242.82^a, e nmol/g (w.w.)"
same,GSSG brain concentration,[2],219.54 ± 53.36 nmol/g (w.w.)
same,GTP brain concentration,[2],"336.65 ± 35.18^a, e, j nmol/g (w.w.)"
same,IMP brain concentration,[2],102.63 ± 22.09^a nmol/g (w.w.)
same,MDA brain concentration,[2],"4.82 ± 1.73^a, e, i nmol/g (w.w.)"
same,NAA brain concentration,[2],"7262.84 ± 749.73^a, e nmol/g (w.w.)"
same,NADH brain concentration,[2],13.12 ± 4.19^e nmol/g (w.w.)
same,NADPH brain concentration,[2],7.05 ± 2.21 nmol/g (w.w.)
same,NADP^+ brain concentration,[2],"21.27 ± 4.19^b, e, j nmol/g (w.w.)"
same,NAD^+ brain concentration,[2],"401.18 ± 34.53^a, e, i nmol/g (w.w.)"
